US20230293404A1, “Compositions Comprising Natural Polymers and One or More (Bio)-Alkanediols” (Symrise AG, priority 2020, published 2023)

What was measured:
[1] = test system: microbial load of natural polymers; experiment: Microbial load of mixtures of natural polymers with alkanediols (plating, CFU count); assay type: cell-based, bacteria
Protocol: The following tests were performed to show the influence of different alkanediols on the microbial load of natural polymers.
A selection of natural polymers as specified in Table 1 was systematically analyzed in combination with different 1,2-alkanediols and 2,3-alkanediols (0.5%). The polymers were chosen to be representative from different polymer classes:
A mixture of the natural polymer (concentration as recommended by supplier) with water and 1,2-alkanediol (0.5%) or 2,3-alkanediol (0.5%) or a mixture of 1,2-alkanediol and 2,3-alkanediol (0.5% final concentration) was prepared, as representative of a cold formulation preparation processes, and directly sampled for determination of microbial load. Additionally, the mixtures were stored at 40° C. and again sampled for microbial load after 2 days and 7 days.
The microbial load of the mixtures was determined by plating 1000 μl (or respective dilutions of the material) on an agar plate based on universal bacterial growth medium (Caseinpepton-Sojamehlpepton-Bouillon, Merck 1.05459+Agar No. 1, Oxoid LP0011). The plates were then incubated at 37° C. for 5 days and then photo documented. In parallel, bacterial colonies were counted (CFU—colony forming units per ml).

[2] = Maximum solubility of alkanediols in water (visual assessment); assay type: physicochemical; settings: assessed at ambient temperature after 24 h storage at 5° C.; visual observation
Text: The water solubility of a substance is the saturation mass concentration of the substance in water at a given temperature. The determination of the solubility in water relates to essentially pure substances which are stable in water and not volatile.
For the determination of the maximum water solubility of an alkanediol, water and different concentrations of the respective alkanediol were blended by stirring. […] The determination of whether the alkanediol has dissolved in water is based entirely on visual observation.

[3] = Physical state of alkanediols and alkanediol mixtures at RTP; assay type: physicochemical; settings: at RTP (room temperature, normal pressure); FIG. 3 and FIG. 4
Text: The term “liquid alkanediol” within the context of the present invention means an alkanediol component which is liquid at room or ambient temperature and under normal pressure, i.e. standard RTP conditions.
FIG. 3 is a photograph showing from left to right samples of the liquid 1,2-pentanediol, 1,2-hexanediol, 1,2-heptanediol, 2,3-heptanediol, 2,3-octanediol and 2,3-undecanediol in comparison to the solid 1,2-octanediol, 1,2-undecanediol, 1,2-nonanediol and the liquid 2,3-nonanediol. The first six alkanediols are liquid at RTP, whereas 1,2-octanediol, 1,2-nonanediol and 1,2-undecanediol are solid substances at RTP; 2,3-nonanediol is also liquid at RTP.
FIG. 4 is a representative photograph of samples of mixtures of 1,2-alkanediols with the respective 2,3-alkanediol. All mixtures are liquid. They are shown in the following order: 1,2-heptanediol (95%)+2,3-heptanediol (5%), 1,2-octanediol (95%)+2,3-octanediol (5%), and 1,2-nonanediol (95%)+2,3-nonanediol (5%).

With `CCCCCC(O)C(C)O` (centres unmarked) [2,3-octanediol] the “Bacterial load (colony forming units)” value ([1]; Covathick (0.5%) in water + 0.5% 2,3-alkanediol, 2 days storage at 40° C.) was 0 CFU per mL, the “Bacterial load (colony forming units)” value ([1]; Covathick (0.5%) in water + 0.5% 2,3-alkanediol, 7 days storage at 40° C.) was 0 CFU per mL and the “Bacterial load (colony forming units)” value ([1]; Covathick (0.5%) in water + 0.5% 2,3-alkanediol, fresh) was 4 CFU per mL. For the same compound, the “Bacterial load (colony forming units)” value ([1]; Genuvisco (0.5%) in water + 0.5% 2,3-alkanediol, 2 days storage at 40° C.) was 0 CFU per mL, the “Bacterial load (colony forming units)” value ([1]; Genuvisco (0.5%) in water + 0.5% 2,3-alkanediol, 7 days storage at 40° C.) was 0 CFU per mL and the “Bacterial load (colony forming units)” value ([1]; Genuvisco (0.5%) in water + 0.5% 2,3-alkanediol, fresh) was 5 CFU per mL. The “Bacterial load (colony forming units)” value ([1]; Polycos-N 75 (0.5%) in water + 0.5% 2,3-alkanediol, 2 days storage at 40° C.) was 0 CFU per mL, the “Bacterial load (colony forming units)” value ([1]; Polycos-N 75 (0.5%) in water + 0.5% 2,3-alkanediol, 7 days storage at 40° C.) was 0 CFU per mL and the “Bacterial load (colony forming units)” value ([1]; Polycos-N 75 (0.5%) in water + 0.5% 2,3-alkanediol, fresh) was 1 CFU per mL. The “Bacterial load (colony forming units)” value ([1]; Xanthan Gum (0.5%) in water + 0.5% 2,3-alkanediol, 2 days storage at 40° C.) was 0 CFU per mL, the “Bacterial load (colony forming units)” value ([1]; Xanthan Gum (0.5%) in water + 0.5% 2,3-alkanediol, 7 days storage at 40° C.) was 0 CFU per mL and the “Effect on the microbial load of the natural polymer solutions (in words)” value ([1]; directly after preparation of the mixtures as well as after 7 days storage, Table 3) was “superior antimicrobial activity”. For the same compound, the “Maximum solubility in water” value [2] was 1.5 % by weight and the Physical state [3] was “liquid”.
